Results taken from patent publication US20260078120A1, “SUBSTITUTED PYRIDOPYRIMIDINONES” (MIRATI THERAPEUTICS, INC., priority 2022, published 2026).
pIC50: −log10 of the molar value.

Key:
[1] = system: SKBR3 (PI3Kα wild type) cells; experiment: CellTiter-Glo 2.0 luminescent cell viability assay, 72 hours, SKBR3 cells; assay type: cell-based; details: Homo sapiens, SK-BR-3, 72 h, SKBR3 (PI3Kα wild type) cells, CellTiter-Glo, approximately 72 hours; read-out: SKBR3 (WT) Viability IC50
In short: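 Viability measured via CTG luminescence following roughly 72 hours of compound exposure at 37° C. Dosing used a 10 um starting concentration diluted 1:4 over 10 points; percent-of-vehicle data fitted with a variable-slope four-parameter model for IC50.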

[2] = system: T47D (PI3Kα H1047R mutant) cells; experiment: CellTiter-Glo 2.0 luminescent cell viability assay, 72 hours, T47D cells; assay type: cell-based; details: Homo sapiens, T47D, 72 h, T47D (PI3Kα H1047R mutant) cells, CellTiter-Glo, approximately 72 hours; read-out: T47D (H1047R mutant) Viability IC50
In short: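 Cells seeded at 1000 per well overnight were dosed with a 10-concentration, 1:4 series starting at 10 µM and incubated ~72 h at 37° C. Viability was read by CellTiter-Glo 2.0 luminescence after 30 min at room temperature. IC50 came from four-parameter fits of percent vehicle control.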

| pIC50 [1] | pIC50 [2] | Structure (SMILES) |
| --- | --- | --- |
| < 5.00 | 6.79 | Cc1cc([C@@H](C)Nc2ccccc2C(=O)O)c2nc(N3CCCCCC3)c(C#N)c(=O)n2c1 [Example 11-319, (R)-2-((1-(2-(azepan-1-yl)-3-cyano-7-methyl-4-oxo-4H-pyrido[1,2-a]pyrimidin-9-yl)ethyl)amino)benzoic acid] |
| < 5.00 | < 5.00 | Cc1cc(C(C)Nc2ccccc2C(=O)O)c2nc(-c3ccccc3C)cc(=O)n2c1 (stereo not shown) [Example 11-395, 2-((1-(7-methyl-4-oxo-2-(o-tolyl)-4H-pyrido[1,2-a]pyrimidin-9-yl)ethyl)amino)benzoic acid] |
| < 5.00 | 6.68 | Cc1cc([C@@H](C)Nc2ccccc2C(=O)O)c2nc(N3CC4(CCN(c5ccc(C#N)cc5)CC4)C3)c(C#N)c(=O)n2c1 [Example 11-172, (R)-2-((1-(3-cyano-2-(7-(4-cyanophenyl)-2,7-diazaspiro[3.5]nonan-2-yl)-7-methyl-4-oxo-4H-pyrido[1,2-a]pyrimidin-9-yl)ethyl)amino)benzoic acid] |
| < 5.00 | < 5.00 | Cc1cc(C(C)NC2CC(C(=O)O)C2)c2nc(N3CCCCC3)cc(=O)n2c1 (stereo not shown) [Example 11-385, 3-((1-(7-methyl-4-oxo-2-(piperidin-1-yl)-4H-pyrido[1,2-a]pyrimidin-9-yl)ethyl)amino)cyclobutane-1-carboxylic acid] |
| < 5.00 | < 5.00 | Cc1cc([C@@H](C)NC(=O)C2(C(=O)O)CCC2)c2nc(N3CCCCC3)c(C#N)c(=O)n2c1 [Example 11-317, (R)-1-((1-(3-cyano-7-methyl-4-oxo-2-(piperidin-1-yl)-4H-pyrido[1,2-a]pyrimidin-9-yl)ethyl)carbamoyl)cyclobutane-1-carboxylic acid] |
| < 5.00 | 6.84 | Cc1cc([C@@H](C)Nc2ccccc2C(=O)O)c2nc(N3CCC(F)(F)C(C)C3)c(C)c(=O)n2c1 (stereo partly drawn) [Example 11-65, 2-(((1R)-1-(2-(4,4-difluoro-3-methylpiperidin-1-yl)-3,7-dimethyl-4-oxo-4H-pyrido[1,2-a]pyrimidin-9-yl)ethyl)amino)benzoic acid] |
| < 5.00 | 6.41 | [2H]C12CC(C3CCN(c4nc5c([C@@H](C)Nc6ccccc6C(=O)O)cc(C)cn5c(=O)c4C)CC3)(C1)C2 [Example 11-36, (R)-2-((1-(2-(4-(bicyclo[1.1.1]pentan-1-yl-3-d)piperidin-1-yl)-3,7-dimethyl-4-oxo-4H-pyrido[1,2-a]pyrimidin-9-yl)ethyl)amino)benzoic acid] |
| < 5.00 | 6.64 | Cc1cc([C@@H](C)Nc2ccccc2C(=O)O)c2nc(N[C@@H](C)C3CC3)c(C#N)c(=O)n2c1 [Example 11-164, 2-(((R)-1-(3-cyano-2-(((S)-1-cyclopropylethyl)amino)-7-methyl-4-oxo-4H-pyrido[1,2-a]pyrimidin-9-yl)ethyl)amino)benzoic acid] |
| < 5.00 | 6.92 | Cc1cc([C@@H](C)Nc2ccccc2C(=O)O)c2nc(NCC(C)C)c(C#N)c(=O)n2c1 [Example 11-308, (R)-2-((1-(3-cyano-2-(isobutylamino)-7-methyl-4-oxo-4H-pyrido[1,2-a]pyrimidin-9-yl)ethyl)amino)benzoic acid] |
| < 5.00 | 6.46 | Cc1cc([C@@H](C)Nc2ccccc2C(=O)O)c2nc(N3CCN(C4CC4)CC3)c(C)c(=O)n2c1 [Example 11-151, (R)-2-((1-(2-(4-cyclopropylpiperazin-1-yl)-3,7-dimethyl-4-oxo-4H-pyrido[1,2-a]pyrimidin-9-yl)ethyl)amino)benzoic acid] |
| < 5.00 | 6.54 | Cc1cc([C@@H](C)Nc2ccccc2C(=O)O)c2nc(N3C[C@@H]4[C@H](C3)[C@H]4C(F)(F)F)c(C)c(=O)n2c1 [Example 11-445, 2-(((R)-1-(3,7-dimethyl-4-oxo-2-((1R,5S,6R)-6-(trifluoromethyl)-3-azabicyclo[3.1.0]hexan-3-yl)-4H-pyrido[1,2-a]pyrimidin-9-yl)ethyl)amino)benzoic acid] |
| < 5.00 | 6.84 | COC1CCN(c2nc3c([C@@H](C)Nc4ccccc4C(=O)O)cc(C)cn3c(=O)c2C#N)CC1(F)F (stereo partly drawn) [Example 11-67, 2-(((1R)-1-(3-cyano-2-(3,3-difluoro-4-methoxypiperidin-1-yl)-7-methyl-4-oxo-4H-pyrido[1,2-a]pyrimidin-9-yl)ethyl)amino)benzoic acid] |
| < 5.00 | 6.18 | Cc1cc([C@@H](C)Nc2ccccc2C(=O)O)c2nc(N[C@H](C3CC3)C(F)(F)F)c(C#N)c(=O)n2c1 [Example 11-160, 2-(((R)-1-(3-cyano-2-(((R)-1-cyclopropyl-2,2,2-trifluoroethyl)amino)-7-methyl-4-oxo-4H-pyrido[1,2-a]pyrimidin-9-yl)ethyl)amino)benzoic acid] |
| < 5.00 | < 5.00 | Cc1cc([C@@H](C)Nc2ccnnc2C(=O)O)c2nc(N3CCC(F)(F)CC3)c(C#N)c(=O)n2c1 [Example 11-146, (R)-4-((1-(3-cyano-2-(4,4-difluoropiperidin-1-yl)-7-methyl-4-oxo-4H-pyrido[1,2-a]pyrimidin-9-yl)ethyl)amino)pyridazine-3-carboxylic acid] |
| < 5.00 | < 5.00 | Cc1cc(C(C)Nc2ccccc2C(=O)O)c2nc(-c3cccc(C#N)c3)cc(=O)n2c1 (stereo not shown) [Example 11-398, 2-((1-(2-(3-cyanophenyl)-7-methyl-4-oxo-4H-pyrido[1,2-a]pyrimidin-9-yl)ethyl)amino)benzoic acid] |
| < 5.00 | 6.93 | Cc1cc([C@@H](C)Nc2ccccc2C(=O)O)c2nc(N3CC(C(F)(F)F)C3)c(C#N)c(=O)n2c1 [Example 11-106, (R)-2-((1-(3-cyano-7-methyl-4-oxo-2-(3-(trifluoromethyl)azetidin-1-yl)-4H-pyrido[1,2-a]pyrimidin-9-yl)ethyl)amino)benzoic acid] |
| < 5.00 | < 5.00 | Cc1cc(C(C)Nc2ccccc2P(C)(=O)O)c2nc(N3Cc4ccccc4C3)cc(=O)n2c1 (stereo not shown) [Example 11-333, (2-((1-(2-(isoindolin-2-yl)-7-methyl-4-oxo-4H-pyrido[1,2-a]pyrimidin-9-yl)ethyl)amino)phenyl)(methyl) phosphinic acid] |
| < 5.00 | 6.45 | Cc1cc([C@@H](C)Nc2ccccc2C(=O)O)c2nc(N3CCN(c4nc5cc(C(F)(F)F)ccc5s4)CC3)c(C)c(=O)n2c1 [Example 11-435, (R)-2-((1-(3,7-dimethyl-4-oxo-2-(4-(5-(trifluoromethyl)benzo[d]thiazol-2-yl)piperazin-1-yl)-4H-pyrido[1,2-a]pyrimidin-9-yl)ethyl)amino)benzoic acid] |
| < 5.00 | 6.61 | Cc1cc([C@@H](C)Nc2ccccc2C(=O)O)c2nc(N3CCN(c4cnn(C)c4)CC3)c(C)c(=O)n2c1 [Example 11-265, (R)-2-((1-(3,7-dimethyl-2-(4-(1-methyl-1H-pyrazol-4-yl)piperazin-1-yl)-4-oxo-4H-pyrido[1,2-a]pyrimidin-9-yl)ethyl)amino)benzoic acid] |
| < 5.00 | 7.19 | CCc1cc([C@@H](C)Nc2ccccc2C(=O)O)c2nc(N3CCC(F)(F)CC3)c(C#N)c(=O)n2c1 [Example 10-46, (R)-2-((1-(3-cyano-2-(4,4-difluoropiperidin-1-yl)-7-ethyl-4-oxo-4H-pyrido[1,2-a]pyrimidin-9-yl)ethyl)amino)benzoic acid] |
| < 5.00 | 6.60 | Cc1cc([C@@H](C)Nc2ccccc2C(=O)O)c2nc(N3CC(F)C3)c(C#N)c(=O)n2c1 [Example 11-113, (R)-2-((1-(3-cyano-2-(3-fluoroazetidin-1-yl)-7-methyl-4-oxo-4H-pyrido[1,2-a]pyrimidin-9-yl)ethyl)amino)benzoic acid] |
| < 5.00 | 6.52 | Cc1cc([C@@H](C)Nc2ccccc2C(=O)O)c2nc(N3CCN(c4ccccc4C#N)C[C@@H]3C)c(C)c(=O)n2c1 [Example 11-82, 2-(((R)-1-(2-((S)-4-(2-cyanophenyl)-2-methylpiperazin-1-yl)-3,7-dimethyl-4-oxo-4H-pyrido[1,2-a]pyrimidin-9-yl)ethyl)amino)benzoic acid] |
| < 5.00 | 6.39 | Cc1cc([C@@H](C)Nc2ccccc2C(=O)O)c2nc(N3CCn4nccc4C3)c(C)c(=O)n2c1 [Example 11-431, (R)-2-((1-(2-(6,7-dihydropyrazolo[1,5-a]pyrazin-5(4H)-yl)-3,7-dimethyl-4-oxo-4H-pyrido[1,2-a]pyrimidin-9-yl)ethyl)amino)benzoic acid] |
| 5.92 | 6.27 | Cc1cc(C(C)Nc2cccnc2C(=O)O)c2nc(N3CCCCC3)c(C)c(=O)n2c1 (stereo not shown) [Example 11-356, 3-((1-(3,7-dimethyl-4-oxo-2-(piperidin-1-yl)-4H-pyrido[1,2-a]pyrimidin-9-yl)ethyl)amino)picolinic acid] |
| < 5.00 | 6.36 | Cc1cc([C@@H](C)Nc2ccccc2C(=O)O)c2nc(N3CCC(C#N)CC3)c(C#N)c(=O)n2c1 [Example 11-72, (R)-2-((1-(3-cyano-2-(4-cyanopiperidin-1-yl)-7-methyl-4-oxo-4H-pyrido[1,2-a]pyrimidin-9-yl)ethyl)amino)benzoic acid] |
| < 5.00 | < 5.00 | Cc1cc([C@@H](C)Nc2ccccc2C(=O)O)c2nc(N3CCC(N(C)C)CC3)c(C#N)c(=O)n2c1 [Example 11-313, (R)-2-((1-(3-cyano-2-(4-(dimethylamino)piperidin-1-yl)-7-methyl-4-oxo-4H-pyrido[1,2-a]pyrimidin-9-yl)ethyl)amino)benzoic acid] |
